From patent US20110003000A1, “Transvaginal Delivery of Drugs” (FemmePharma Holding Company, Inc., priority 2009, published 2011)
Where a name gives a salt, the structure may show the parent alone.

Key:
[1] = test system: urgency incontinence; urinary frequency, urgency and nocturia; test: Clinical case reports of transvaginal oxybutynin; type: in vivo, human; conditions: person
Method: A person developed urgency incontinence two years after their laparoscopically assisted transvaginal hysterectomy. […] Two weeks later, they started applying oxybutynin (5 mg) into the vagina at bed time, instead of Ditropan XL. […] The patient used transvaginal oxybutynin (5 mg) at bed time for 6 months.
A person with a history of chronic pelvic pain and multiple surgical procedures, including pain mapping under conscious sedation and repair of occult bilateral inguinal hernias, developed urinary frequency, urgency and nocturia. Their urine analysis and urine culture were negative for signs of urinary tract infection. Their treatment began with transvaginal oxybutynin (5 mg) once daily, at bed time, applied into the vagina.

[2] = test system: persistent urge incontinence; conditions: intravesical administration; eleven patients; cited from earlier work
[3] = 5 mg into the vagina at bed time
[4] = 5 mg into the vagina twice daily
[5] = transvaginal 5 mg at bed time for 6 months

With `Cc1ccc(O)c([C@H](CCN(C(C)C)C(C)C)c2ccccc2)c1` [DETROL, tolterodine tartrate] the “improvement of urgency incontinence” value ([1]; 2 mg orally twice a day) was “slight improvement”.

In the case of `CCN(CC)CC#CCOC(=O)C(O)(c1ccccc1)C1CCCCC1` (stereo not shown) [oxybutynin chloride], the “patients reporting improvement and becoming totally continent” value [2] is listed as “Ten out of eleven” and the side effects [2] is listed as “no side effects were observed”.

In the case of `CCN(CC)CC#CCOC(=O)C(O)(c1ccccc1)C1CCCCC1` (stereo not shown) [oxybutynin], the side effects [1, 3] is reported as “did not experience any noticeable side effects”, the urgency symptoms [1, 3] is reported as “improved remarkably” and the improvement of symptoms [1, 4] is reported as “remarkable improvement”. For the same compound, the side effects [1, 4] was “no significant side effects”, the “control of symptoms of urgency incontinence throughout the treatment period” value [1, 5] was “remained effective” and the “side effects throughout the treatment period” value [1, 5] was “did not suffer from any side effects”. For the same compound, the “improvement of urinary frequency, urgency and nocturia” value ([1]; transvaginal 5 mg once daily at bed time) was “significant improvement”.
